Assay [1] deals with Integrin alpha-V/beta-5 (Homo sapiens). Nature of the assay: Displacement of [125I]echistatin from integrin alphaVbeta5 receptor in human placenta by microplate scintillation counter.
In assay [2] the target is Integrin alpha-V/beta-3 (Homo sapiens, UniProt P05106+P06756).
Description: Displacement of [125I]echistatin from integrin alphaVbeta3 receptor in human placenta by microplate scintillation counter

For orientation: IC50 means the concentration at which inhibition is half-maximal.

Structures are written as SMILES.

Integrin alpha-V/beta-3, sequence (P05106 27-788 limits assumed): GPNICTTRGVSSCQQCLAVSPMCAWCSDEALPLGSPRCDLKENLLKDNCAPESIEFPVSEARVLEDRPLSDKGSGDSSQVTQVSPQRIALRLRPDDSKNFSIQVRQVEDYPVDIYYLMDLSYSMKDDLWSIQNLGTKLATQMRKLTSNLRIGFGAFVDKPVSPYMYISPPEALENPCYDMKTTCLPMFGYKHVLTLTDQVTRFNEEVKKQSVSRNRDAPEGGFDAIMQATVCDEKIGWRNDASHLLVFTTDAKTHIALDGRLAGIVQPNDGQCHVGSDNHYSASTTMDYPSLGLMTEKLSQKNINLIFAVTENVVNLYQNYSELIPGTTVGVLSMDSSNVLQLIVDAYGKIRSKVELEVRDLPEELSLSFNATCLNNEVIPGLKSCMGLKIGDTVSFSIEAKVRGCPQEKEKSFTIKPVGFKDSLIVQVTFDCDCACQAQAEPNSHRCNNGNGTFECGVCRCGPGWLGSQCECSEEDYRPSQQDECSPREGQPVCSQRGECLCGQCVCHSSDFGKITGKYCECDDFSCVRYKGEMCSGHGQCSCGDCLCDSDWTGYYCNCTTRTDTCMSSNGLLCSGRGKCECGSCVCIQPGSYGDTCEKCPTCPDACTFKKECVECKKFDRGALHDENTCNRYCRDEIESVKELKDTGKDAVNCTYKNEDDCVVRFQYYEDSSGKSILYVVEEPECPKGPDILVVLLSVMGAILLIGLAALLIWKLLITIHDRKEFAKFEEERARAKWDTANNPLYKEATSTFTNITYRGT
Integrin alpha-V/beta-3, sequence (P06756 31-889 partner limits assumed): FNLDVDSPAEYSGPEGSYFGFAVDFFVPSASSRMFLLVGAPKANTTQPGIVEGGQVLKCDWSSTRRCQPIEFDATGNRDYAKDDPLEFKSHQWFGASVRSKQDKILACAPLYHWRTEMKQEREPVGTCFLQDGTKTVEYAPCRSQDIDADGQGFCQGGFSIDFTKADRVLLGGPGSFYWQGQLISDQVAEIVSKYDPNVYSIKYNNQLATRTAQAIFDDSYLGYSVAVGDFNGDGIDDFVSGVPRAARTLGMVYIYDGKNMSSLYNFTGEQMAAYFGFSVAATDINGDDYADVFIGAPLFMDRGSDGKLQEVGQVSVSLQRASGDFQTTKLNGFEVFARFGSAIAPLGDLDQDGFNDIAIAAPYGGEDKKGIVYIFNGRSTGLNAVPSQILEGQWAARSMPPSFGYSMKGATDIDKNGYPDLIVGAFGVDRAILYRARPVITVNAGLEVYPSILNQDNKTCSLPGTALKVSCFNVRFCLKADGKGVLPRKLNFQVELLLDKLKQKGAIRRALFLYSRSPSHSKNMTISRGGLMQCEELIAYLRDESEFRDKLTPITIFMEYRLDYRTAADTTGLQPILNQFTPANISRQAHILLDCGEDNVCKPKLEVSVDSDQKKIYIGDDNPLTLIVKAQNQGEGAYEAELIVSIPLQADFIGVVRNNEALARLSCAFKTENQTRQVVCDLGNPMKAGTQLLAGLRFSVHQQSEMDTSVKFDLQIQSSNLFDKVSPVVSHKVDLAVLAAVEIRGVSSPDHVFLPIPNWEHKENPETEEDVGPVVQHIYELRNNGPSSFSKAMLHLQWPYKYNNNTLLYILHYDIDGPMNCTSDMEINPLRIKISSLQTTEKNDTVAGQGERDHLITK
Integrin alpha-V/beta-3, sequence (P06756 891-1048 partner limits assumed): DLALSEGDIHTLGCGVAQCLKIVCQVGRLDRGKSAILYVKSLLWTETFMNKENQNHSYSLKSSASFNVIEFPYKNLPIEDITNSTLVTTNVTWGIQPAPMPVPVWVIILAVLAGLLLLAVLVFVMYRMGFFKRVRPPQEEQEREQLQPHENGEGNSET

`NC(N)=NCCC[C@@H]1NC(=O)CNC(=O)[C@H](CC(=O)O)N[C@@H]2CCC[C@@H]3CC[C@@H](C1=O)N3C2=O`: the figures for the IC50 in assay [1] and in assay [2] were 0.9 nM and 5.64 nM, respectively.

Source of the values: ChEMBL document CHEMBL1152742, “Morpholine-based RGD-cyclopentapeptides as alphavbeta3/alphavbeta5 integrin ligands: role of configuration towards receptor binding affinity” (Bioorg Med Chem, 2009).
